Reference: US9820986B2, “Glycopeptide compositions” (TAIWAN HOPAZ CHEMS, MFG. CO., LTD., priority 2005, dated 2017)

Columns and labels:
[1] = Renal clearance of pamidronate; settings: in vivo
[2] = tested on: bone; assay: Bone scintographic imaging studies; format: in vivo, normal female Fischer 344 rats; settings: 99mTc-labeled, 300 μCi, i.v.
[3] = tested on: tumor; assay: Tumor response to paclitaxel treatment, imaged with 99mTc-glycopeptide; format: in vivo, rats; settings: paclitaxel 40 mg/kg iv
Description: To assess anti-angiogenic treatment response, rats were treated with paclitaxel (40 mg/kg,iv), followed by imaging with ^99mTc-glycopeptide on day 4. Tumor uptake and in situ hybridization (ISH) and TUNEL assays were conducted pre- and post-paclitaxel treatment.

Row | SMILES | renal clearance [1] | bone targeting [2] | tumor progression ([3]; day 4, compared to 99mTc-glycopeptide baseline) | tumor necrosis ([3]; post-treatment)
1 | NCCC(O)(P(=O)(O)O)P(=O)(O)O [Pamidronate] | quick renal clearance | targets bone poorly | – | –
2 | CC(=O)O[C@H]1C(=O)[C@@]2(C)[C@H]([C@H](OC(=O)c3ccccc3)[C@]3(O)C[C@H](OC(=O)[C@H](O)[C@@H](NC(=O)c4ccccc4)c4ccccc4)C(C)=C1C3(C)C)[C@]1(OC(C)=O)CO[C@@H]1C[C@@H]2O [paclitaxel] | – | – | no marked tumor progression | clearly seen
